The record followed here is US20150111764A1, “POLYMERIZED MICROARRAYS” (New York University, priority 2013, published 2015).

Experiment [1] concerns the target T1, Rhodamine-labeled PNA (galactose-specific lectin) (Arachis hypogaea, UniProt P02872).
T1 sequence (P02872 24-273): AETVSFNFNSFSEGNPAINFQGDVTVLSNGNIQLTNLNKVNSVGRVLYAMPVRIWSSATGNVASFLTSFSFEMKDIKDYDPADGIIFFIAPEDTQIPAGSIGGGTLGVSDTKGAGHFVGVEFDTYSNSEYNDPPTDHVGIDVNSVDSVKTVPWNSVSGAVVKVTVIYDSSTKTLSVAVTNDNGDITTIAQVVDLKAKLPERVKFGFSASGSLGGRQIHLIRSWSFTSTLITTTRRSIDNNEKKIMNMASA
The experiment is described as follows: Control: glycan arrays exposed to Rhodamine-labeled PNA, fluorescence. The format is binding. Conditions: PNA 1.5×10^−5 M, 5 h, washed with phosphate buffer/Tween 20. The source says: Control Experiments. […] This experiment supports the conclusion that fluorescence in the Cy3-labelled ConA exposed arrays of compound 3 and compound 4 arise from ConA-glucose binding (FIG. 27).

The next experiment concerns the target Concanavalin A (ConA) (Canavalia ensiformis, UniProt P02866).

Description for Concanavalin A (ConA): Fluorescence intensity profiles of the array were obtained from a Nikon Eclipse Ti fluorescence microscope (λex=532-587 nm, λobs=608-683 nm), and extracted by NIS-elements software (Nikon Instruments, Inc.). Exposure times ranged from 1-4 s, depending on the brightness of the arrays. To compare data taken with different exposure times, the normalized fluorescence was obtained by dividing the maximum fluorescence by the background fluorescence. It is possible that the ratio of signal-to-background can vary with exposure time, so to test the effect of exposure time on the normalized fluorescence of features on the microarray, fluorescence images of a surface patterned with compound 4 and bound to Cy3-modified ConA were taken at different exposure time.
Preparation of Carbohydrate arrays by PPL-induced Thiol-ene and Thiol-acrylate reaction. To prepare the pen arrays for inking, they were exposed to O2 plasma (Harrick PDC-001, 30 s, medium power) to render the surfaces of the pen-arrays hydrophilic. […]
Arrays of compound 3 and compound 4 were prepared by the thiol-methacrylate and thiol-ene reactions, respectively, as well as α-mannosides immobilized by the thiol-ene and Cuaac reaction. Binding of Concanavalin A (ConA) to these arrays was measured by fluorescence microscopy to determine how the mutivalency of the resulting glycans affects binding. […]

As to α-glucomethacrylate [compound 3], the “fluorescence after exposure to Rhodamine-labeled PNA” value in experiment [1] is “no fluorescence was observed”; in experiment [1] (listed as Compound 3), “no visible fluorescence was observed”. In addition, the “lowest ConA concentration detected by the array” value at Concanavalin A (ConA) (ConA concentration varied systematically, thiol-acrylate brush polymer arrays) is 0.2 µM. For the same substance, the “normalized fluorescence of array after ConA binding” value at Concanavalin A (ConA) (Cy3-labelled ConA 0.5 mg/mL, 4 h at 4° C., maximum fluorescence divided by background fluorescence) came out at 7.1±0.2.
